Test results from US5075289A, “9-R-azacyclic erythromycin antibiotics” (priority 1988, dated 1991).
In brackets after ≈: the same amount, converted by molar mass. Where two headings read alike, the source gives them in different places.

What was measured:
Assay type in all cases: cell-based
[1] = test system: Staphylococcus aureus 45 RAR 2; test: microbe, parasite or virus in culture; details: 45RAR2
How it was run: (§1)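 Test compound serially diluted in Brain Heart Infusion agar across twelve plates; inocula of 1:100 dilutions (1:10 for slow growers such as Streptococcus) applied by replicator. Plates incubated 20-24 h at 35°-37° C. MIC taken as lowest concentration giving no growth, slight haze or sparse isolated colonies versus drug-free control.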

[2] = test system: Staphylococcus epidermidis 3519; test: In vitro antibacterial activity, agar dilution MIC; details: S. epidermidis 3519, Brain Heart Infusion agar, 20-24 hours, read-out: MIC
How it was run: as §1

[3] = test system: Haemophilus influenzae 503B; test: In vitro antibacterial activity, agar dilution MIC; details: H. influenzae 503B
How it was run: as §1

[4] = test system: Haemophilus influenzae 519A; test: In vitro antibacterial activity, agar dilution MIC; details: H. influenzae 519A
How it was run: as §1

[5] = test system: Escherichia coli SS; test: In vitro antibacterial activity, agar dilution MIC; details: read-out: MIC
How it was run: as §1

[6] = test system: Staphylococcus aureus ATCC 6538P; test: In vitro antibacterial activity, agar dilution MIC; details: ATCC6538P
How it was run: as §1

[7] = test system: Haemophilus influenzae ATCC 10211; test: In vitro antibacterial activity, agar dilution MIC; details: ATCC10211, H. influenzae ATCC 10211
How it was run: as §1

[8] = test system: Streptococcus pyogenes 2548 INDUC; test: In vitro antibacterial activity, agar dilution MIC; details: S. pyogenes 2548 INDUC, Brain Heart Infusion agar, 20-24 hours, read-out: MIC
How it was run: as §1

[9] = test system: Haemophilus influenzae DILL AMP R; test: In vitro antibacterial activity, agar dilution MIC; details: H. influenzae DILL AMP R
How it was run: as §1

[10] = test system: Streptococcus agalactiae CMX 508; test: In vitro antibacterial activity, agar dilution MIC; details: CMX508, S. agalactiae CMX 508, Brain Heart Infusion agar, 20-24 hours, read-out: MIC
How it was run: as §1

[11] = test system: Escherichia coli H560; test: In vitro antibacterial activity, agar dilution MIC; details: H560
How it was run: as §1

[12] = test system: Haemophilus influenzae SOL AMP R; test: In vitro antibacterial activity, agar dilution MIC; details: H. influenzae SOL AMP R
How it was run: as §1

[13] = test system: Haemophilus influenzae 751; test: In vitro antibacterial activity, agar dilution MIC; details: H. influenzae 751
How it was run: as §1

[14] = test system: Haemophilus influenzae ATCC 9795; test: In vitro antibacterial activity, agar dilution MIC; details: ATCC9795, H. influenzae ATCC 9795
How it was run: as §1

[15] = test system: Staphylococcus aureus CMX 553; test: In vitro antibacterial activity, agar dilution MIC; details: CMX553, S. aureus CMX 553, Brain Heart Infusion agar, 20-24 hours, read-out: MIC
How it was run: as §1

[16] = test system: Haemophilus influenzae 747C; test: In vitro antibacterial activity, agar dilution MIC; details: H. influenzae 747C
How it was run: as §1

[17] = test system: Haemophilus influenzae 504; test: In vitro antibacterial activity, agar dilution MIC; details: H. influenzae 504
How it was run: as §1

[18] = test system: Streptococcus pyogenes EES61; test: In vitro antibacterial activity, agar dilution MIC; details: S. pyogenes EES61, Brain Heart Infusion agar, 20-24 hours, read-out: MIC
How it was run: as §1

[19] = test system: Staphylococcus aureus 45; test: In vitro antibacterial activity, agar dilution MIC
How it was run: as §1

[20] = test system: Enterococcus faecium ATCC 8043; test: In vitro antibacterial activity, agar dilution MIC
How it was run: as §1

[21] = test system: Streptococcus bovis A5169; test: In vitro antibacterial activity, agar dilution MIC
How it was run: as §1

[22] = test system: Haemophilus influenzae 588A; test: In vitro antibacterial activity, agar dilution MIC; details: H. influenzae 588A
How it was run: as §1

[23] = test system: Haemophilus influenzae 632A; test: In vitro antibacterial activity, agar dilution MIC; details: H. influenzae 632A
How it was run: as §1

[24] = test system: Haemophilus influenzae ATCC 19418; test: In vitro antibacterial activity, agar dilution MIC; details: ATCC19418, H. influenzae ATCC 19418
How it was run: as §1

[25] = test system: Streptococcus pyogenes 930 CONST; test: In vitro antibacterial activity, agar dilution MIC; details: 930CONST
How it was run: as §1

[26] = test system: Haemophilus influenzae 667A; test: In vitro antibacterial activity, agar dilution MIC; details: H. influenzae 667A
How it was run: as §1

[27] = test system: Haemophilus influenzae 566A; test: In vitro antibacterial activity, agar dilution MIC; details: H. influenzae 566A
How it was run: as §1

[28] = test system: Escherichia coli Juhl; test: In vitro antibacterial activity, agar dilution MIC
How it was run: as §1

[29] = test system: Haemophilus influenzae 1177; test: In vitro antibacterial activity, agar dilution MIC; details: H. influenzae 1177
How it was run: as §1

[30] = test system: Staphylococcus aureus CMX 503A; test: In vitro antibacterial activity, agar dilution MIC; details: CMX503A, S. aureus CMX 503A, Brain Heart Infusion agar, 20-24 hours, read-out: MIC
How it was run: as §1

[31] = test system: Staphylococcus aureus A5177; test: In vitro antibacterial activity, agar dilution MIC; details: S. aureus A5177, Brain Heart Infusion agar, 20-24 hours, read-out: MIC
How it was run: as §1

[32] = test system: Micrococcus luteus ATCC 9341; test: In vitro antibacterial activity, agar dilution MIC; details: ATCC9341, M. luteus ATCC 9341, Brain Heart Infusion agar, 20-24 hours, read-out: MIC
How it was run: as §1

[33] = test system: Staphylococcus aureus CMX 686B; test: In vitro antibacterial activity, agar dilution MIC; details: CMX686B, S. aureus CMX 686B, Brain Heart Infusion agar, 20-24 hours, read-out: MIC
How it was run: as §1

[34] = test system: Haemophilus influenzae SPK AMP R; test: In vitro antibacterial activity, agar dilution MIC; details: H. influenzae SPK AMP R
How it was run: as §1

[35] = test system: Haemophilus influenzae 1435; test: In vitro antibacterial activity, agar dilution MIC; details: H. influenzae 1435
How it was run: as §1

SMILES | MIC [1] [µg/mL] | MIC [2] [µg/mL] | MIC [3] [µg/mL] | MIC [4] [µg/mL] | MIC [7] [µg/mL] | MIC [8] [µg/mL] | MIC [9] [µg/mL] | MIC [10] [µg/mL] | MIC [11] [µg/mL] | MIC [12] [µg/mL] | MIC [13] [µg/mL] | MIC [14] [µg/mL] | MIC [15] [µg/mL] | MIC [16] [µg/mL] | MIC [17] [µg/mL] | MIC [18] [µg/mL] | MIC [22] [µg/mL] | MIC [23] [µg/mL] | MIC [24] [µg/mL] | MIC [25] [µg/mL] | also measured
CC[C@H]1OC(=O)[C@H](C)[C@@H](O[C@H]2C[C@@](C)(OC)[C@@H](O)[C@H](C)O2)[C@H](C)[C@@H](O[C@@H]2O[C@H](C)C[C@H](N(C)C)[C@H]2O)[C@](C)(O)C[C@@H](C)[C@@H](N2CCOCC2)[C@H](C)[C@@H](O)[C@]1(C)O [Example 19] | 0.39 (≈ 0.484 µM) | 0.39 (≈ 0.484 µM) | 1 (≈ 1.24 µM) | 2 (≈ 2.48 µM) | 2 (≈ 2.48 µM) | 6.2 (≈ 7.7 µM) | 2 (≈ 2.48 µM) | 0.05 (≈ 0.0621 µM) | 6.2 (≈ 7.7 µM) | 2 (≈ 2.48 µM) | 8 (≈ 9.94 µM) | 4 (≈ 4.97 µM) | 0.39 (≈ 0.484 µM) | 2 (≈ 2.48 µM) | 4 (≈ 4.97 µM) | 0.05 (≈ 0.0621 µM) | 2 (≈ 2.48 µM) | 4 (≈ 4.97 µM) | 4 (≈ 4.97 µM) | > 100 | MIC [5]: 0.2 µg/mL (≈ 0.248 µM); MIC [6]: 0.39 µg/mL (≈ 0.484 µM); MIC [19]; 45: 0.39 µg/mL (≈ 0.484 µM); MIC ([20]; ATCC8043): 0.1 µg/mL (≈ 0.124 µM); MIC [21]: 0.1 µg/mL (≈ 0.124 µM); MIC [26]: 4 µg/mL (≈ 4.97 µM); MIC [27]: 4 µg/mL (≈ 4.97 µM); MIC [28]: 50 µg/mL (≈ 62.1 µM); MIC [29]: 0.25 µg/mL (≈ 0.311 µM); MIC [30]: 0.39 µg/mL (≈ 0.484 µM); MIC [31]: 6.2 µg/mL (≈ 7.7 µM); MIC [32]: 0.05 µg/mL (≈ 0.0621 µM); MIC [33]: 0.39 µg/mL (≈ 0.484 µM); MIC [34]: 4 µg/mL (≈ 4.97 µM); MIC [35]: 1 µg/mL (≈ 1.24 µM)
CC[C@H]1OC(=O)[C@H](C)[C@@H](O[C@H]2C[C@@](C)(OC)[C@@H](O)[C@H](C)O2)[C@H](C)[C@@H](O[C@@H]2O[C@H](C)C[C@H](N(C)C)[C@H]2O)[C@](C)(O)C[C@@H](C)[C@@H](N2CCCCC2)[C@H](C)[C@@H](O)[C@]1(C)O [Example 5] | 0.78 (≈ 0.971 µM) | 0.39 (≈ 0.486 µM) | 0.5 (≈ 0.623 µM) | 0.5 (≈ 0.623 µM) | 1 (≈ 1.25 µM) | 6.2 (≈ 7.72 µM) | 1 (≈ 1.25 µM) | 0.05 (≈ 0.0623 µM) | 25 (≈ 31.1 µM) | 1 (≈ 1.25 µM) | 4 (≈ 4.98 µM) | 1 (≈ 1.25 µM) | 0.39 (≈ 0.486 µM) | 1 (≈ 1.25 µM) | 1 (≈ 1.25 µM) | 0.05 (≈ 0.0623 µM) | 1 (≈ 1.25 µM) | 1 (≈ 1.25 µM) | 2 (≈ 2.49 µM) | > 100 | MIC ([5]; E. coli SS, Brain Heart Infusion agar, 20-24 hours): 0.39 µg/mL (≈ 0.486 µM); MIC ([6]; S. aureus ATCC 6538P, Brain Heart Infusion agar, 35-37° C., 20-24 hours, read-out: MIC): 0.39 µg/mL (≈ 0.486 µM); MIC ([19]; S. aureus 45, Brain Heart Infusion agar, 20-24 hours, read-out: MIC): 0.78 µg/mL (≈ 0.971 µM); MIC ([20]; ATCC8043, E. faecium ATCC 8043, Brain Heart Infusion agar, 20-24 hours, read-out: MIC): 0.1 µg/mL (≈ 0.125 µM); MIC ([21]; S. bovis A5169, Brain Heart Infusion agar, 20-24 hours, read-out: MIC): 0.1 µg/mL (≈ 0.125 µM); MIC [26]: 1 µg/mL (≈ 1.25 µM); MIC [27]: 2 µg/mL (≈ 2.49 µM); MIC [28]: 50 µg/mL (≈ 62.3 µM); MIC [29]: 0.25 µg/mL (≈ 0.311 µM); MIC [30]: 0.39 µg/mL (≈ 0.486 µM); MIC [31]: 6.2 µg/mL (≈ 7.72 µM); MIC [32]: 0.1 µg/mL (≈ 0.125 µM); MIC [33]: 0.39 µg/mL (≈ 0.486 µM); MIC [34]: 1 µg/mL (≈ 1.25 µM); MIC [35]: 0.5 µg/mL (≈ 0.623 µM)
